Reference: patent US20080096894A1, “Anti-Bacterial Compounds” (ASTON UNIVERSITY, priority 2005, published 2008)
Like-named read-outs stand apart in the source and are kept apart here.

Tests used:
Bacillus cereus [1] = assay: MIC, doubling dilution in 96-well microtitre plate; format: cell-based
Protocol: (§1) The compound was tested as follows. […] The wells were inoculated with organism ([…] of medium containing 10^6 cfu/mL) and the plates were incubated at 37° C. overnight. Where growth of organism occurred this was observed as a small button when viewed from underneath the plate. The MIC was determined as the lowest concentration inhibiting growth.

Bacillus megarerium [2] = assay: MIC, doubling dilution in 96-well microtitre plate; format: cell-based
Protocol: as §1

Bacillus subtilis = assay: MIC, doubling dilution in 96-well microtitre plate; format: cell-based
Protocol: as §1

[3] = tested on: Citrobacter diversus 2046E; assay: MIC, doubling dilution in 96-well microtitre plate; format: cell-based
Protocol: as §1

Citrobacter freundii = assay: MIC, doubling dilution in 96-well microtitre plate; format: cell-based
Protocol: as §1

[4] = tested on: Enterobacter cloacae ATCC 13047; assay: MIC, doubling dilution in 96-well microtitre plate; format: cell-based
Protocol: as §1

[5] = tested on: Enterococcus faecalis NCTC 5957; assay: MIC, doubling dilution in 96-well microtitre plate; format: cell-based
Protocol: as §1

Enterococcus faecium = assay: MIC, doubling dilution in 96-well microtitre plate; format: cell-based; details: Enterococcus faecium ATCC 10541
Protocol: as §1

[6] = tested on: Escherichia coli olli-blue; assay: MIC, doubling dilution in 96-well microtitre plate; format: cell-based
Protocol: as §1

Hafnia alvei = assay: MIC, doubling dilution in 96-well microtitre plate; format: cell-based
Protocol: as §1

[7] = tested on: Klebsiella pneumoniae ATCC 33495; assay: MIC, doubling dilution in 96-well microtitre plate; format: cell-based
Protocol: as §1

Micrococcus luteus = assay: MIC, doubling dilution in 96-well microtitre plate; format: cell-based
Protocol: as §1

Micrococcus roseus [8] = assay: MIC, doubling dilution in 96-well microtitre plate; format: cell-based
Protocol: as §1

Moraxella catarrhalis = assay: MIC, doubling dilution in 96-well microtitre plate; format: cell-based
Protocol: as §1

[9] = tested on: Proteus mirabilis NCTC 5887; assay: MIC, doubling dilution in 96-well microtitre plate; format: cell-based
Protocol: as §1

[10] = tested on: Pseudomonas aeruginosa ATCC 15692 (PA01); assay: MIC, doubling dilution in 96-well microtitre plate; format: cell-based
Protocol: as §1

Salmonella Cambridge = assay: MIC, doubling dilution in 96-well microtitre plate; format: cell-based
Protocol: as §1

Salmonella arizonae = assay: MIC, doubling dilution in 96-well microtitre plate; format: cell-based
Protocol: as §1

Salmonella banana = assay: MIC, doubling dilution in 96-well microtitre plate; format: cell-based
Protocol: as §1

Salmonella enteriditis = assay: MIC, doubling dilution in 96-well microtitre plate; format: cell-based
Protocol: as §1

[11] = tested on: Staphylococcus aureus (MRSA) 96-7475; assay: MIC, doubling dilution in 96-well microtitre plate; format: cell-based
Protocol: as §1

[12] = tested on: Staphylococcus aureus NCTC 10788; assay: MIC, doubling dilution in 96-well microtitre plate; format: cell-based
Protocol: as §1

[13] = tested on: Staphylococcus aureus NCTC 6571; assay: MIC, doubling dilution in 96-well microtitre plate; format: cell-based
Protocol: as §1

[14] = tested on: Staphylococcus aureus W11 MRSA; assay: MIC, doubling dilution in 96-well microtitre plate; format: cell-based
Protocol: as §1

[15] = tested on: Staphylococcus epidermidis NCTC 11047; assay: MIC, doubling dilution in 96-well microtitre plate; format: cell-based
Protocol: as §1

[16] = tested on: Streptococcus bovis NCTC 11436; assay: MIC, doubling dilution in 96-well microtitre plate; format: cell-based
Protocol: as §1

MRSA = assay: MIC, agar dilution, multipoint inoculator; format: cell-based, methicillin-resistant Staphylococcus aureus; details: Staphylococcus aureus
How it was run: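 Agar dilution MIC on Mueller Hinton agar, multipoint inoculator delivering 10^4 colony forming units per spot. MRSA values are ranges across ten clinical MRSA strains; S. aureus NCTC 6571 as reference strain.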

E. faecium = assay: MIC, agar dilution, multipoint inoculator; format: cell-based, Enterococcus faecium; details: Enterococcus faecium, upper value of MIC reading, read-out: MIC
How it was run: (§2)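 Read-out is the MIC by agar dilution. Plates contain Mueller Hinton agar; bacteria are applied via multipoint inoculator, 10^4 CFU per spot.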

E. faecalis = assay: MIC, agar dilution, multipoint inoculator; format: cell-based; details: Enterococcus faecalis, upper value of MIC reading, read-out: MIC
How it was run: as §2

S. haemolyticus = assay: MIC, agar dilution, multipoint inoculator; format: cell-based; details: Staphylococcus haemolyticus, 18 h; S. haemolyticus Isolate 1; upper value of MIC reading; read-out: MIC
How it was run: as §2

Bacillus cereus [17] = assay: MIC, agar dilution, multipoint inoculator; format: cell-based
Protocol: (§3) This activity was measured using a multipoint inoculator method as follows. The MIC for each compound was measured using an agar dilution method (Onda, H., et al., Int. J. Antimicrob. Agents. 18, 263 (2001)) (Mueller Hinton agar) by means of a multipoint inoculator delivering 10^4 colony forming units per spot.
(§4) 4Pycq was also tested against the following bacteria, using the multipoint inoculator method.

Bacillus megarerium [18] = assay: MIC, agar dilution, multipoint inoculator; format: cell-based
Protocol: as §3, §4

Bacillus polymyxa = assay: MIC, agar dilution, multipoint inoculator; format: cell-based; details: Paenibacillus polymyxa
Protocol: as §3, §4

Micrococcus roseus [19] = assay: MIC, agar dilution, multipoint inoculator; format: cell-based; details: Kocuria rosea
Protocol: as §3, §4

Measured: MIC

NC(=NN=Cc1ccc([N+](=O)[O-])o1)c1cc[n+]([O-])cc1 (mixture of isomers) [Compound 4PYOfi]
32 to 64 µg/mL: [3] | Citrobacter freundii | [4] | Hafnia alvei | [7] | [9] | [10] | Salmonella enteriditis
4 to 8 µg/mL: [5] | Salmonella banana | [11] | [12] | [13] | [14] | [16]
16 to 32 µg/mL: [6] | Moraxella catarrhalis | Salmonella Cambridge | Salmonella arizonae
8 to 16 µg/mL: Bacillus cereus [1] | Bacillus megarerium [2] | Bacillus subtilis | Enterococcus faecium | Micrococcus luteus | Micrococcus roseus [8]
2 to 4 µg/mL: [15]

CC(C)(C)c1cc(/C=N/N=C(\N)c2ccncc2)c(O)c(C(C)(C)C)c1 [Compound 4PYcq]
2 to 4 µg/mL: MRSA; MRSA, 18 h, panel of ten MRSA strains (clinical isolates), read-out: MRSA MIC range | MRSA; MRSA, the MRSA strains which were tested, read-out: MIC | Bacillus cereus [17] | Bacillus polymyxa
4 µg/mL: MRSA; 18 h, MRSA Isolate 1, upper value of MIC reading, read-out: MIC | MRSA; 18 h, MRSA Isolate 2, upper value of MIC reading, read-out: MIC | MRSA; 18 h, MRSA Isolate 3, upper value of MIC reading, read-out: MIC | MRSA; 18 h, MRSA Isolate 4, upper value of MIC reading, read-out: MIC | MRSA; 18 h, MRSA Isolate 5, upper value of MIC reading, read-out: MIC | MRSA; 18 h, MRSA Isolate 6, upper value of MIC reading, read-out: MIC | MRSA; 18 h, MRSA Isolate 7, upper value of MIC reading, read-out: MIC | MRSA; 18 h, MRSA Isolate 8, upper value of MIC reading, read-out: MIC | MRSA; 18 h, MRSA Isolate 9, upper value of MIC reading, read-out: MIC | MRSA; 18 h, MRSA Isolate 10, upper value of MIC reading, read-out: MIC | E. faecium; 18 h, E. faecium ACTCC 10541 | E. faecium; NCTC7171, 18 h, E. faecium NCTC 7171 | E. faecalis; 18 h, E. faecalis EBH1 | E. faecalis; 18 h, E. faecalis Isolate 1 | E. faecalis; 18 h, E. faecalis Isolate 2 | E. faecalis; 18 h, E. faecalis Isolate 4 | E. faecalis; 18 h, E. faecalis Isolate 5 | E. faecalis; NCTC5957, 18 h, E. faecalis NCTC 5957 | S. haemolyticus
0.5 to 1 µg/mL: Bacillus megarerium [18] | Micrococcus roseus [19]
